Laboratory results from paper PMC8213057, “Targeting ALK2: An Open Science Approach to Developing Therapeutics for the Treatment of Diffuse Intrinsic Pontine Glioma” (Journal of Medicinal Chemistry, 2020).

Experiments:
MEKK3 = biological target: T1, MEKK3 (Homo sapiens, UniProt Q99759); settings: 1 μM; Run 1, Run 2
T1 sequence (Q99759 1-626): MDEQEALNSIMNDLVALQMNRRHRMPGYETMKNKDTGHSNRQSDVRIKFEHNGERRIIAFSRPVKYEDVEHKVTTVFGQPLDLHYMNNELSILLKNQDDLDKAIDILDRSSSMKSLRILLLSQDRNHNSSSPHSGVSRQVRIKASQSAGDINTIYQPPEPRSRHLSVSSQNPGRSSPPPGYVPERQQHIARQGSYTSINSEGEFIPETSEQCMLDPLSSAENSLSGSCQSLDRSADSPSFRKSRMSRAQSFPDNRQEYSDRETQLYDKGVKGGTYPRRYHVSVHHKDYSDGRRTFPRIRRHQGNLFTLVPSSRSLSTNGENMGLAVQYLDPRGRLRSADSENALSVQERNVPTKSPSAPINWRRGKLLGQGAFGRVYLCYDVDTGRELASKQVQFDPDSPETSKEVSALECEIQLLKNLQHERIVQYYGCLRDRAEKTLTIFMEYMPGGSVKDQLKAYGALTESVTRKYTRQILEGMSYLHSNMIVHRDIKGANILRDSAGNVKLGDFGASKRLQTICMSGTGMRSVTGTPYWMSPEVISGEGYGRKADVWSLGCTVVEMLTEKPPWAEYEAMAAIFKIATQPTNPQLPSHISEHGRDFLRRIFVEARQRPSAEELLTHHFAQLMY

SGK1 = biological target: T2, SGK1 (Homo sapiens, UniProt O00141); settings: 1 μM; Run 1, Run 2
T2 sequence (O00141 1-431): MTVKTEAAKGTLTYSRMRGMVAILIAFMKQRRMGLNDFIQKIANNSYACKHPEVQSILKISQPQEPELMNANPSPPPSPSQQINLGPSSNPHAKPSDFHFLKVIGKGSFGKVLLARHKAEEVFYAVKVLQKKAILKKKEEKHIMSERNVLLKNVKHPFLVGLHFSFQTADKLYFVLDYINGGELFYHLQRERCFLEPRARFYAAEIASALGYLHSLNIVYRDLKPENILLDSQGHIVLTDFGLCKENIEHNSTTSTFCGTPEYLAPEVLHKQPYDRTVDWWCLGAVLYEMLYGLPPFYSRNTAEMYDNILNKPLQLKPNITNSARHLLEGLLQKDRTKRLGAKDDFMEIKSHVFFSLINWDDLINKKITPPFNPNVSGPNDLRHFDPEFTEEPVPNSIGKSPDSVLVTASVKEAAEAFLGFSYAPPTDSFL

ROS/ROS1 = ROS/ROS1 (Homo sapiens, UniProt P08922); experiment: biochemical; settings: read-out: % enzyme activity, 1 μM; Run 1, Run 2
Chain of ROS/ROS1 (P08922 28-2347): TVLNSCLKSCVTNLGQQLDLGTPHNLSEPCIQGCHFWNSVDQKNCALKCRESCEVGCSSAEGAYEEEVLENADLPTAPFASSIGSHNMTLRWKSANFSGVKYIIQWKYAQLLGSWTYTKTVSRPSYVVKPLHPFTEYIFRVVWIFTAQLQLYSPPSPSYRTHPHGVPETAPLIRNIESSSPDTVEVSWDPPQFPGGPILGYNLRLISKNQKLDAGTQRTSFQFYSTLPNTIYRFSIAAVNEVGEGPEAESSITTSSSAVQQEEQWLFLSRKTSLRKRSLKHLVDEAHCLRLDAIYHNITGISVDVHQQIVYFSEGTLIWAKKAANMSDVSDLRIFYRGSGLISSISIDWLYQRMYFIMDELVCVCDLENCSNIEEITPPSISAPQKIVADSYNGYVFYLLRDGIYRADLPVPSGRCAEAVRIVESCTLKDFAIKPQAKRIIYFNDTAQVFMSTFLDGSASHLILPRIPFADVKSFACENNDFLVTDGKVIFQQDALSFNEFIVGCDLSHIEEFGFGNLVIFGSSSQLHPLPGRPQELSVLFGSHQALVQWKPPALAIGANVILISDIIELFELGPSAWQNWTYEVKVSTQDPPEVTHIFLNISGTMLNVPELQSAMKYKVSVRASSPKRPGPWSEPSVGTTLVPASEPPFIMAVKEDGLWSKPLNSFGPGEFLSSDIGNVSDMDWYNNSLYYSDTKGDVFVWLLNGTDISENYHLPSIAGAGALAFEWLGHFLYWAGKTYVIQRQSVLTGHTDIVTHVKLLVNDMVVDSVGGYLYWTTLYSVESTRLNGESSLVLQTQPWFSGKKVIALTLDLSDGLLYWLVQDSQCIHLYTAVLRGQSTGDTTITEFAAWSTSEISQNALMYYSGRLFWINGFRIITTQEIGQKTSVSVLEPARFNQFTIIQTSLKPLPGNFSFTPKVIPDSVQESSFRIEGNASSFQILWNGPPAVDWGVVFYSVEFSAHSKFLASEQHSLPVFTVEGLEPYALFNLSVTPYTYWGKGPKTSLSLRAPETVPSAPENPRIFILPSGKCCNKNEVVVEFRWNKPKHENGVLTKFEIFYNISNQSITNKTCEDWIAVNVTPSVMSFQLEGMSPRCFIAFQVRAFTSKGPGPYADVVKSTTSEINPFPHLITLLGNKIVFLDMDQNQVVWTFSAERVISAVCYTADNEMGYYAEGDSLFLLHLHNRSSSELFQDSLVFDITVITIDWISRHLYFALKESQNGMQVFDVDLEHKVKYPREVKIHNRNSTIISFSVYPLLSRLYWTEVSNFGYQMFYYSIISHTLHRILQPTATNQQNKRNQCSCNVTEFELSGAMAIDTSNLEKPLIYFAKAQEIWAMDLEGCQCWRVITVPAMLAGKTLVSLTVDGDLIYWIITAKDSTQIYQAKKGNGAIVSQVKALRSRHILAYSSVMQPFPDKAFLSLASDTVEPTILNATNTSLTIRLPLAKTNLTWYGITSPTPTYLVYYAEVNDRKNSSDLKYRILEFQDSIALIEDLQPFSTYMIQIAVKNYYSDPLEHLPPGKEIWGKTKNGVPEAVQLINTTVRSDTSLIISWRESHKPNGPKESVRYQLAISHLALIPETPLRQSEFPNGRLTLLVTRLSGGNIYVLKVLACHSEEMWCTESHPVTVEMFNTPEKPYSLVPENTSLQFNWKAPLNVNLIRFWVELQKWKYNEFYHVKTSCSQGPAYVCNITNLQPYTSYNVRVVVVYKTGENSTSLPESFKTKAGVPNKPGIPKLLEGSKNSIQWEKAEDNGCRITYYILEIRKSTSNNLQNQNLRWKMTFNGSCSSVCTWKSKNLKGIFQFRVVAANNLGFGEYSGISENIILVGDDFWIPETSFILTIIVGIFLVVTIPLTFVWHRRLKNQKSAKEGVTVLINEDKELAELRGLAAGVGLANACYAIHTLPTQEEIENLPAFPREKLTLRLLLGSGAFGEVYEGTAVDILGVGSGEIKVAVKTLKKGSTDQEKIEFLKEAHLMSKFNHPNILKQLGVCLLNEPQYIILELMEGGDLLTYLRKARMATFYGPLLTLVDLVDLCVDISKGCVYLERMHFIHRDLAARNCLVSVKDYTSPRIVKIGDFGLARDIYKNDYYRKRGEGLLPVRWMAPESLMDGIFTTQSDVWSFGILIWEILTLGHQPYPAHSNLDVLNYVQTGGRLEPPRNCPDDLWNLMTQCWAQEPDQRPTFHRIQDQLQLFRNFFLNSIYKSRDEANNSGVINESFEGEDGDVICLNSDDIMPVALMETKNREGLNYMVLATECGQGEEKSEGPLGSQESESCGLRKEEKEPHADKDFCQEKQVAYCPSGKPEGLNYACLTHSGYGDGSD

PKCzeta = biological target: T3, PKCzeta (Homo sapiens, UniProt Q05513); experiment: biochemical; settings: read-out: % enzyme activity, 1 μM; Run 1, Run 2
T3 sequence (Q05513 1-592): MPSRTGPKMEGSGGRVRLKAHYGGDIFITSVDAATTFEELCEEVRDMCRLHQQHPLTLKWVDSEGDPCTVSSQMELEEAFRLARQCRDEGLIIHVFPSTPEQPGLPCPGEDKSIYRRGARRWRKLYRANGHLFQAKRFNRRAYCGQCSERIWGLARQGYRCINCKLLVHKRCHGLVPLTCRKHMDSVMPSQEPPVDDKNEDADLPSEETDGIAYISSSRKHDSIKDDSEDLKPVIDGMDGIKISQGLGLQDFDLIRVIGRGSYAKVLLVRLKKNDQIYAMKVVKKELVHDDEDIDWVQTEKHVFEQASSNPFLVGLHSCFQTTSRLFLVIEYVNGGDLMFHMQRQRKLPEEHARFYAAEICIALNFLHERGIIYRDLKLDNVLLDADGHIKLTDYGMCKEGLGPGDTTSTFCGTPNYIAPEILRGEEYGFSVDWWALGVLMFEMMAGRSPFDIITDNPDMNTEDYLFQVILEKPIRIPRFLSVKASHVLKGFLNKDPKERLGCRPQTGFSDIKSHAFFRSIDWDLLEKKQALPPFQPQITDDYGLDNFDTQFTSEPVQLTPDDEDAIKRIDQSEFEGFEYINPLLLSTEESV

MST1/STK4 = biological target: T4, MST1/STK4 (Homo sapiens, UniProt Q13043); settings: 1 μM; Run 1, Run 2
T4 sequence (Q13043 1-487): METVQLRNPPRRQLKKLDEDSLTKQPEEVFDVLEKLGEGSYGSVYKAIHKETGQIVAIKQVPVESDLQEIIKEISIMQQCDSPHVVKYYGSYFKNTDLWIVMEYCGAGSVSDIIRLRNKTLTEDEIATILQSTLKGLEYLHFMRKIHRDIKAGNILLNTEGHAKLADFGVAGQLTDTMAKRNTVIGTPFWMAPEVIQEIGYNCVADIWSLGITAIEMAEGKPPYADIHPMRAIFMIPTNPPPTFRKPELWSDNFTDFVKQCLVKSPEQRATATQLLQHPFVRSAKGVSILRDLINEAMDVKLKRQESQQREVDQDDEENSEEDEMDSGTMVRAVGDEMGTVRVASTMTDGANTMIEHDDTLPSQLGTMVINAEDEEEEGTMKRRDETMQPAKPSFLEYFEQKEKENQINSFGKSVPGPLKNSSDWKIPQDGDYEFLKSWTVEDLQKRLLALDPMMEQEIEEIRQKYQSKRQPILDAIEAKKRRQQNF

COc1cc(-c2cncc(-c3ccc(N4CCN(C)CC4)cc3)c2C)cc(F)c1C(N)=O [Compound 26a, 2-Fluoro-6-methoxy-4-(4-methyl-5-(4-(4-methylpiperazin-1-yl)phenyl)pyridin-3-yl)benzamide]
% enzyme activity (MEKK3): 93.57% | % enzyme activity (SGK1): 93.48% | remaining activity at 1 µM (ROS/ROS1): 87.7% | CYP inhibition (CYP2C19): > 50 µM | remaining activity at 1 µM (PKCzeta): 91.2% | % enzyme activity (MST1/STK4): 100.26%

COc1cc(-c2cncc(-c3ccc(N4C[C@@H](C)N(C)[C@@H](C)C4)cc3)c2C)cc(F)c1C(N)=O [Compound 26c, 2-Fluoro-6-methoxy-4-(4-methyl-5-(4-((3R,5S)-3,4,5-trimethylpiperazin-1-yl)phenyl)pyridin-3-yl)benzamide]
% enzyme activity (MEKK3): 100.00% | % enzyme activity (SGK1): 95.22% | remaining activity at 1 µM (ROS/ROS1): 97.4% | CYP inhibition (CYP2C19): > 50 µM | remaining activity at 1 µM (PKCzeta): 92.5% | % enzyme activity (MST1/STK4): 101.65%
